Measured values: article PMC3098721 (Molecular microbiology, 2010)

Target: PqsH (MBP-PqsH) (Pseudomonas aeruginosa, UniProt Q02N79)
Experiment: PQS fluorescence after ethyl acetate extraction, Michaelis-Menten fit
Assay type: biochemical
Details: NADH and O2 constant at saturating levels; pH 8.0

Chain of PqsH (MBP-PqsH) (Q02N79 2-382): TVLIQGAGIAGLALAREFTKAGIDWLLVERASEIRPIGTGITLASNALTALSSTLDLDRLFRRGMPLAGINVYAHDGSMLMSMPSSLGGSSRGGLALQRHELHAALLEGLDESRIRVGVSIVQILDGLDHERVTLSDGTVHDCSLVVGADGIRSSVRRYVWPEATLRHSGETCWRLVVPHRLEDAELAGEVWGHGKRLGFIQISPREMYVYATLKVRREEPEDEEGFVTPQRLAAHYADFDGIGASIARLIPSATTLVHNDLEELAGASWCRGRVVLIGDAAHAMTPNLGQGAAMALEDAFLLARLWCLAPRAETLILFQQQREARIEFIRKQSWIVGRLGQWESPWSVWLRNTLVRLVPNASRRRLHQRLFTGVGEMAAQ

CCCc1cc(=O)c2ccccc2[nH]1 [C3-HHQ]
Km: almost entirely due to elevated Km values
